Data from BigSolDB 2.1.

CCCSc1nc(N[C@@H]2C[C@H]2c2ccc(F)c(F)c2)c2nnn([C@@H]3C[C@H](OCCO)[C@@H](O)[C@H]3O)c2n1
solubility (mole fraction)
Settings	273.15 K	278.15 K	283.15 K	288.15 K	293.15 K	298.15 K	303.15 K	308.15 K	313.15 K
in 2-butanone	0.0218	0.0269	0.0321	0.038	0.0439	0.051	0.0584	0.0673	0.0776
in acetonitrile	0.000876	0.00115	0.00144	0.00179	0.00217	0.0026	0.00309	0.00359	0.00416
in cyclohexanone	0.0265	0.0316	0.0374	0.0437	0.051	0.0578	0.0661	0.0744	0.0832
in ethanol	0.00315	0.0041	0.00503	0.00625	0.00747	0.00881	0.0105	0.0125	0.0149
in ethyl acetate	0.00409	0.00504	0.00608	0.00716	0.00855	0.0101	0.0118	0.0135	0.0157
in isobutanol	0.00148	0.00176	0.00209	0.00243	0.00284	0.00324	0.00373	0.00425	0.00484
in isopropanol	0.00251	0.00286	0.00325	0.00364	0.00404	0.00446	0.00496	0.00547	0.00599
in methanol	0.00494	0.00615	0.00741	0.0092	0.0114	0.014	0.0169	0.0203	0.0239
in n-butanol	0.00289	0.00363	0.0045	0.00542	0.00656	0.00768	0.00895	0.0103	0.0118
in n-octanol	0.0021	0.00233	0.00263	0.00292	0.00327	0.00367	0.00406	0.00456	0.0051
in n-propanol	0.00268	0.00327	0.00389	0.00462	0.00535	0.00612	0.00692	0.00776	0.00872
in toluene	3e-05	3.8e-05	4.9e-05	6.3e-05	8e-05	0.000102	0.00013	0.00016	0.000196
